In patent publication US20050197338A1, “Substituted pyrazole urea compounds for the treatment of inflammation” (priority 2003, published 2005) one finds IC50 data, which are given here for 30 molecules.

In this assay the target is T1, Rat IKK-2 (Rattus norvegicus, UniProt Q9QY78).
T1 sequence (Q9QY78 1-757): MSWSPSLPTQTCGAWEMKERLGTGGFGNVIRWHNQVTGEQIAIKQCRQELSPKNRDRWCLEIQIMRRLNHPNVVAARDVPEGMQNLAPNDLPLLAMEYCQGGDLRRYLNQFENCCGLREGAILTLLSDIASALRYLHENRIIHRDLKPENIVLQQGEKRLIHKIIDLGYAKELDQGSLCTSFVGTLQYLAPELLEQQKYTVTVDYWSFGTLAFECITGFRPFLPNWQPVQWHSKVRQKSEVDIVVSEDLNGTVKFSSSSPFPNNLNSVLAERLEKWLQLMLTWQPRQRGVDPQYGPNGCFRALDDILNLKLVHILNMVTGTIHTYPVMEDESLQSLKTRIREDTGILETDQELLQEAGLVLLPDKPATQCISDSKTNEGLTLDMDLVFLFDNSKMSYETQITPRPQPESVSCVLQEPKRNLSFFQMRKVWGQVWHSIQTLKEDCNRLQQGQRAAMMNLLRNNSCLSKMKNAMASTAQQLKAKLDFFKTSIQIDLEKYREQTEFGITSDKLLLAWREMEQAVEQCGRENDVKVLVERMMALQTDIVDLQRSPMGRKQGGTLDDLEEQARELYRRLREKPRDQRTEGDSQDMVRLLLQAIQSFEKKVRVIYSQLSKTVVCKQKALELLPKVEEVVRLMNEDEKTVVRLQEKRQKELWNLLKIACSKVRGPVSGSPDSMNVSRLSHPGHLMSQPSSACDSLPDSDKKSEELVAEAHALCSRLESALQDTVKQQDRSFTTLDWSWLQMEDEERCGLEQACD
Description: Rat IKK-2 enzyme assay. Particulars: read-out: IC50 (μM) rIKK-2. It is filed as biochemical. Here is the method:
Kinase activity was measured using a biotinylated […] peptide (Gly-Leu-Lys-Lys-Glu-Arg-Leu-Leu-Asp-Asp-Arg-His-Asp-Ser32-Gly-Leu-Asp-Ser36-Met-Lys-Asp-Glu-Glu) (American Peptide Co.). 20 μL of the standard reaction mixture contained 5 μM biotinylated IκBα peptide, 0.1 μCi/reaction [γ-^33P] ATP (Amersham) (about 1×10^5 cpm), 1 μM ATP (Sigma), 1 mM DTT (Sigma), 2 mM MgCl2 (Sigma), 2 mM MnCl2 (Sigma), 10 mM NaF (Sigma), 25 mM Hepes (Sigma) buffer, pH. 7.6 and 20 μL enzyme solution (50 nM/rxn or 200 ng/rxn) and 10 μL inhibitor in a final volume of 50 μL. After incubation at 25° C. for 60 min, 150 μL resin was added to each well to stop the reaction. Resin was mixed and allowed to settle for 1 h and 50 μL of supernatant was removed to a Micolite 2 flat bottom plate (Dynex). 150 μL of scintillation fluid (Microscint 40) (Packard) was added to each well. Incorporation of [γ-^33P] ATP was measured using a Top-Count NXT (Packard).
Usually IC50 stands for the concentration that gives 50% inhibition. Turning to `NC(=O)Nc1cn(-c2ccc(Br)c(C(F)(F)F)c2)nc1C(N)=O` [Example 1, 4-[(aminocarbonyl)amino]-1-[4-bromo-3-(trifluoromethyl)phenyl]-1H-pyrazole-3-carboxamide], the half-inhibitory concentration (IC50) is 0.108 µM. The figure for `CCOc1cc(-n2cc(NC(N)=O)c(C(N)=O)n2)ccc1Br` [Example 3, 4-[(aminocarbonyl)amino]-1-(4-bromo-3-ethoxyphenyl)-1H-pyrazole-3-carboxamide] is 0.787 µM. In the case of `Cc1cc(I)ccc1-n1cc(NC(N)=O)c(C(N)=O)n1` [Example 4, 1-(4-iodo-2-methyl-phenyl)-4-ureido-1H-pyrazole-3-carboxylic acid amide], the IC50 was found to be 1.93 µM. `Cc1cc(-c2cccc(O)c2)ccc1-n1cc(NC(N)=O)c(C(N)=O)n1` [Example 5, 4-[(aminocarbonyl)amino]-1-(3′-hydroxy-3-methyl-1,1′-biphenyl-4-yl)-1H-pyrazole-3-carboxamide]: the IC50 was determined as 3.71 µM. In the case of `NC(=O)Nc1cn(-c2ccc(-c3cccc(O)c3)c(Cl)c2)nc1C(N)=O` [Example 7, 4-[(aminocarbonyl)amino]-1-(2-chloro-3′-hydroxy-1,1′-biphenyl-4-yl)-1H-pyrazole-3-carboxamide], the IC50 turned out to be 0.121 µM. The same measure for `Cc1cc(-n2cc(NC(N)=O)c(C(N)=O)n2)ccc1I` [Example 8, 1-(4-iodo-3-methyl-phenyl)-4-ureido-1H-pyrazole-3-carboxylic acid amide]: 0.089 µM. The figure for `CNC(=O)Nc1cn(-c2cccc(Br)c2)nc1C(N)=O` [Example 15, 1-(3-bromophenyl)-4-{[(methylamino)carbonyl]amino}-1H-pyrazole-3-carboxamide] is 4.45 µM; for `CNC(=O)Nc1cn(-c2ccc(Br)cc2)nc1C(N)=O` [Example 16, 1-(4-bromophenyl)-4-{[(methylamino)carbonyl]amino}-1H-pyrazole-3-carboxamide] it is 2.83 µM. In the case of `NC(=O)Nc1cn(-c2ccc(Br)cc2)nc1C(N)=O` [Example 19, 1-(1-(4-bromophenyl)-3-carbamoyl-1H-pyrazol-4-yl)urea], the IC50 was 0.352 µM.

As for `NC(=O)Nc1cn(-c2cccc(-c3ccc(F)cc3O)c2)nc1C(N)=O` [Example 92, 4-[(aminocarbonyl)amino]-1-(4′-fluoro-2′-hydroxy-1,1′-biphenyl-3-yl)-1H-pyrazole-3-carboxamide], the IC50 was 2.66 µM. As for `NC(=O)Nc1cn(-c2cccc(-c3cc(F)ccc3O)c2)nc1C(N)=O` [Example 93, 4-[(aminocarbonyl)amino]-1-(5′-fluoro-2′-hydroxy-1,1′-biphenyl-3-yl)-1H-pyrazole-3-carboxamide], the IC50 was 1.82 µM. Consider `N#CCOc1ccc(F)cc1-c1cccc(-n2cc(NC(N)=O)c(C(N)=O)n2)c1` [Example 94, 4-[(aminocarbonyl)amino]-1-[2′-(cyanomethoxy)-5′-fluoro-1,1′-biphenyl-3-yl]-1H-pyrazole-3-carboxamide], for which the IC50 amounted to 0.22 µM. The figure for `NC(=O)Nc1cn(-c2ccc(-c3ccc(C(=O)O)c(F)c3)cc2)nc1C(N)=O` [Example 97, 4′-{3-(aminocarbonyl)-4-[(aminocarbonyl)amino]-1H-pyrazol-1-yl}-3-fluoro-1,1′-biphenyl-4-carboxylic acid] is 0.18 µM; for `NC(=O)Nc1cn(-c2ccc(-c3ccc(F)cc3O)cc2)nc1C(N)=O` [Example 98, 4-[(aminocarbonyl)amino]-1-(4′-fluoro-2′-hydroxy-1,1′-biphenyl-4-yl)-1H-pyrazole-3-carboxamide] it is 0.668 µM; for `NC(=O)Nc1cn(-c2ccc(-c3cc(F)ccc3O)cc2)nc1C(N)=O` [Example 99, 4-[(aminocarbonyl)amino]-1-(5′-fluoro-2′-hydroxy-1,1′-biphenyl-4-yl)-1H-pyrazole-3-carboxamide] it is 0.555 µM.

`N#Cc1ccc(-c2ccc(-n3cc(NC(N)=O)c(C(N)=O)n3)cc2)cc1` [Example 100, 4-[(aminocarbonyl)amino]-1-(4′-cyano-1,1′-biphenyl-4-yl)-1H-pyrazole-3-carboxamide]: the concentration for half-maximal inhibition (IC50) was 0.171 µM.

As for `NC(=O)Nc1cn(-c2ccc(-c3ccccc3)cc2)nc1C(N)=O` [Example 101, 4-[(aminocarbonyl)amino]-1-(1,1′-biphenyl-4-yl)-1H-pyrazole-3-carboxamide], the IC50 was 1.89 µM.

On to `NC(=O)Nc1cn(-c2ccc(-c3cc4ccccc4[nH]3)cc2)nc1C(N)=O` [Example 141, 4-[(aminocarbonyl)amino]-1-[4-(1H-indol-2-yl)phenyl]-1H-pyrazole-3-carboxamide], for which the IC50 was 4 µM. Turning to `CN(C)CCN(C)C(=O)c1ccc(-c2ccc(-n3cc(NC(N)=O)c(C(N)=O)n3)cc2)cc1F` [Example 160, 4-[(aminocarbonyl)amino]-1-(4′-{[[2-(dimethylamino)ethyl](methyl)amino]carbonyl}-3′-fluoro-1,1′-biphenyl-4-yl)-1H-pyrazole-3-carboxamide], the IC50 stood at 7.19 µM.

Regarding `NC(=O)Nc1cn(-c2ccc(-c3ccc(C(=O)OCc4ccccc4F)c(F)c3)cc2)nc1C(N)=O` [Example 162, 2-fluorobenzyl 4′-{3-(aminocarbonyl)-4-[(aminocarbonyl)amino]-1H-pyrazol-1-yl}-3-fluoro-1,1′-biphenyl-4-carboxylate], the IC50 came out at 13.6 µM. The same measure for `NC(=O)Nc1cn(-c2ccc(-c3ccc(C(=O)OCc4cccc(F)c4)c(F)c3)cc2)nc1C(N)=O` [Example 163, 3-fluorobenzyl 4′-{3-(aminocarbonyl)-4-[(aminocarbonyl)amino]-1H-pyrazol-1-yl}-3-fluoro-1,1′-biphenyl-4-carboxylate]: 17.4 µM; for `NC(=O)Nc1cn(-c2ccc(-c3ccc(C(=O)OCc4ccc(F)cc4)c(F)c3)cc2)nc1C(N)=O` [Example 164, 4-fluorobenzyl 4′-{3-(aminocarbonyl)-4-[(aminocarbonyl)amino]-1H-pyrazol-1-yl}-3-fluoro-1,1′-biphenyl-4-carboxylate]: 7.27 µM; for `N#CCOc1ccc(F)cc1-c1ccc(-n2cc(NC(N)=O)c(C(N)=O)n2)cc1` [Example 172, 4-[(aminocarbonyl)amino]-1-[2′-(cyanomethoxy)-5′-fluoro-1,1′-biphenyl-4-yl]-1H-pyrazole-3-carboxamide]: 0.033 µM. The figure for `N#CCOc1cc(F)ccc1-c1ccc(-n2cc(NC(N)=O)c(C(N)=O)n2)cc1` [Example 173, 4-[(aminocarbonyl)amino]-1-[2′-(cyanomethoxy)-4′-fluoro-1,1′-biphenyl-4-yl]-1H-pyrazole-3-carboxamide] is 0.105 µM; for `CC(C)(C)OC(=O)COc1cccc(-c2ccc(-n3cc(NC(N)=O)c(C(N)=O)n3)cc2)c1` [Example 174, tert-butyl [(4′-{3-(aminocarbonyl)-4-[(aminocarbonyl)amino]-1H-pyrazol-1-yl}-1,1′-biphenyl-3-yl)oxy]acetate] it is 2.49 µM; for `NC(=O)COc1cccc(-c2ccc(-n3cc(NC(N)=O)c(C(N)=O)n3)cc2)c1` [Example 175, 4-[(aminocarbonyl)amino]-1-[3′-(2-amino-2-oxoethoxy)-1,1′-biphenyl-4-yl]-1H-pyrazole-3-carboxamide] it is 0.181 µM. The figure for `N#CCCc1cccc(-c2ccc(-n3cc(NC(N)=O)c(C(N)=O)n3)cc2)c1` [Example 186, 4-[(aminocarbonyl)amino]-1-[3′-(2-cyanoethyl)-1,1′-biphenyl-4-yl]-1H-pyrazole-3-carboxamide] is 0.475 µM; for `NC(=O)Nc1cn(-c2ccc(-c3ccc(-c4nnn[nH]4)cc3)cc2)nc1C(N)=O` [Example 187, 4-[(aminocarbonyl)amino]-1-[4′-(1H-tetrazol-5-yl)-1,1′-biphenyl-4-yl]-1H-pyrazole-3-carboxamide] it is 0.441 µM. For the molecule `NC(=O)Nc1cn(-c2ccc(S(=O)(=O)C3CCCCC3)cc2)nc1C(N)=O` [Example 192, 1-(3-carbamoyl-1-(4-(cyclohexylsulfonyl)phenyl)-1H-pyrazol-4-yl)urea], the IC50 came out at 0.297 µM.

`NC(=O)Nc1cn(-c2ccc(S(=O)(=O)c3ccccc3F)cc2)nc1C(N)=O` [Example 194, 1-(1-(4-(2-fluorophenylsulfonyl)phenyl)-3-carbamoyl-1H-pyrazol-4-yl)urea]: the IC50 was 0.173 µM.
